Source: patent US8541611B2 (dated 2013)

Molecule `CC(C)N(C)S(=O)(=O)NC(=O)c1cc(N=C=O)c(F)cc1Cl` has a melting point of 144 to 148 °C.
